Data set [1] deals with HBV (genotype D, serotype ayw, Galibert's strain). Put plainly: Quantification of virion associated secreted HBV DNA in supernatant of HBV-infected Primary Human Hepatocytes (PHH) by qPCR, % of replication vs DMSO. The settings on record: 1 μM compound, 7 days treatment, DMSO = 100%; for activity at 1 µM: Hepatitis B virus, Hepatocyte, 168 h, (*) n = 1, read-out: PHH HBV % of replication at 1 μM compared to DMSO; for PHH HBV % of replication at 1 μM compared to DMSO: (*) n = 1. The class given is cell-based, hepatitis B virus. The protocol: (§1) From Methods in Lucifora J. et al. (Direct antiviral properties of TLR ligands against HBV replication in immune-competent hepatocytes, Science Scientific Reports, 2018, 8:5390): • 1) HepaRG cells were cultured, as described previously by Gripon P. et al. (Infection of a human hepatoma cell line by hepatitis B virus. Proc Natl Acad Sci USA, 2002, 99, p 15655-15660) on pages 15655 and 15656, in Williams E medium supplemented with 10% fetal calf serum, 50 U penicillin/streptomycin (Gibco-Invitrogen) ml^−1, […] ml^−1 and 5×10^−7 M hydrocortisone hemisuccinate (Roche Diagnostics and Boehringer Mannheim, respectively). The cell cultures were maintained in a 5% CO2 atmosphere at 37° C. During the proliferation phase, culture medium was renewed every 2 days. For differentiation and infection, cells were maintained for 2 weeks in standard medium and then for at least 2 more weeks in medium supplemented with 1.8-2.0% DMSO (Sigma). • 2) Primary Human Hepatocytes (PHH) were freshly prepared from human liver resection as previously described by Lecluyse, E. L. & Alexandre, E. (Isolation and culture of primary hepatocytes from resected human liver tissue. Methods Mol Biol, 2010, 640, p 57-82, https://doi.org/10.1007/978-1-60761-688-7_3) on page 63 paragraph 3. “Methods” from section 3.1. through 3.6.2. page 77. All experimental procedures were conducted in conformity with French laws and regulations and were approved by the National Ethics Committee. • 3) Cell viability was measured by both neutral red and MTS (CellTiter 96 Aqueous One Solution cell proliferation assay; Promega) tests. • 4) HBV inoculum (genotype D, serotype ayw, Galibert's strain referred as NC_003977.2 at NCBI) was prepared from HepAD38 (see Ladner, S. K. et al., Inducible expression of human hepatitis B virus (HBV) in stably transfected hepatoblastoma cells: a novel system for screening potential inhibitors of HBV replication. Antimicrob Agents Chemother, 1997, 41, p 1715-1720) supernatants by polyethylene-glycol-MW-8000 (PEG8000, SIGMA) precipitation (8% final) as previously described by Luangsay, S. et al. (Early inhibition of hepatocyte innate responses by hepatitis B virus. J Hepatol, 2015, 63, p 1314-1322, https://doi.org/10.1016/j.jhep.2015.07.014).
(§2) Viral stocks with titer reaching at least 1×10^10 viral genome equivalent (vge)/mL were tested endotoxin free.
(§3) Differentiated HepaRG (dHepaRG) or PHH were infected by HBV at a multiplicity of infection of 100-200 vge/cell in culture medium containing 4% PEG 8000 (Sigma) for 16 h at 37° C. in 12- or six-well plates. At the end of the incubation period, cells were washed once with medium and then cultured in Williams E medium containing DMSO as indicated. In general infection was left for 7 days before any treatment was started, to allow replication reaching its maximum. • 5) Infected cell treatment with compounds of interest: • 5a: After 7 days of infection with the virus (day 0 to day 7), the dHepaRG cells were treated (3 treatments: day 7, day 10 and day 12) with a […] of the tested compound (diluted with sterile water from a 10 mM stock DMSO solution) or DMSO as reference negative control for 7 more days. • 5b: After 4 days of infection with the virus (day 0 to day 4), the PHH cells were treated (3 treatments: day 4, day 7 and day 9) with a […] of the tested compound (diluted with sterile water from a 10 mM stock DMSO solution) for 7 more days. • 6) Quantification of virion associated secreted HBV DNA in cell culture supernatant:
(§4) At the end of the experiment (7 days treatment) the supernatant of infected and treated cells (either dHepaRG or PHH or others) is collected. It is diluted 1/4 into sterile water (molecular biology quality) then treated for 30 minutes with RNAse (10 unit) and DNAse (10 unit) to remove non encapsidated material. […]
(In qPCR the cycle at which signal appears reflects the starting amount.)

Data set [2] can be described thus: Cell viability by neutral red and MTS (CellTiter 96 Aqueous One Solution) tests, HepaRG cells. The conditions noted are these: human, differentiated HepaRG (dHepaRG) cells, CellTiter-Glo, read-out: Cytotoxicity (CC50 in μM) in dHepaRG CellTiter-Glo. The class given is cell-based, human. The protocol: (§5) From Methods in Lucifora J. et al. (Direct antiviral properties of TLR ligands against HBV replication in immune-competent hepatocytes, Science Scientific Reports, 2018, 8:5390): • 1) HepaRG cells were cultured, as described previously by Gripon P. et al. (Infection of a human hepatoma cell line by hepatitis B virus. Proc Natl Acad Sci USA, 2002, 99, p 15655-15660) on pages 15655 and 15656, in Williams E medium supplemented with 10% fetal calf serum, 50 U penicillin/streptomycin (Gibco-Invitrogen) ml^−1, […] ml^−1 and 5×10^−7 M hydrocortisone hemisuccinate (Roche Diagnostics and Boehringer Mannheim, respectively). The cell cultures were maintained in a 5% CO2 atmosphere at 37° C. During the proliferation phase, culture medium was renewed every 2 days. For differentiation and infection, cells were maintained for 2 weeks in standard medium and then for at least 2 more weeks in medium supplemented with 1.8-2.0% DMSO (Sigma). • 2) Primary Human Hepatocytes (PHH) were freshly prepared from human liver resection as previously described by Lecluyse, E. L. & Alexandre, E. (Isolation and culture of primary hepatocytes from resected human liver tissue. Methods Mol Biol, 2010, 640, p 57-82, https://doi.org/10.1007/978-1-60761-688-7_3) on page 63 paragraph 3. “Methods” from section 3.1. through 3.6.2. page 77. […] K. et al., Inducible expression of human hepatitis B virus (HBV) in stably transfected hepatoblastoma cells: a novel system for screening potential inhibitors of HBV replication. Antimicrob Agents Chemother, 1997, 41, p 1715-1720) supernatants by polyethylene-glycol-MW-8000 (PEG8000, SIGMA) precipitation (8% final) as previously described by Luangsay, S. et al. (Early inhibition of hepatocyte innate responses by hepatitis B virus. J Hepatol, 2015, 63, p 1314-1322, https://doi.org/10.1016/j.jhep.2015.07.014).
Background: Cellular ATP, detected with luciferase, serves as a proxy for viable cell number.

In data set [3] the test system is HBV (genotype D, serotype ayw, Galibert's strain). The data set can be described thus: Quantification of virion associated secreted HBV DNA in supernatant of HBV-infected differentiated HepaRG (dHepaRG) cells by qPCR, % of replication vs DMSO. The class given is cell-based, hepatitis B virus. The conditions noted are these: 1 μM compound, 7 days treatment, DMSO = 100%; for activity at 1 µM: Hepatitis B virus, HepaRG, 168 h, read-out: dHepaRG HBV % of replication at 1 μM compared to DMSO. The method, then: as §1, §2, §3, §4

The test system of data set [4] is HepaRG cells. The data set can be described thus: Cell viability by neutral red and MTS (CellTiter 96 Aqueous One Solution) tests, HepaRG cells. The class given is cell-based, human. The conditions noted are these: dHepaRG cells, CellTiter-Glo; read-out: Cytotoxicity (CC50 in μM) in dHepaRG CellTiter-Glo. The method, then:
as §5

Molecules are shown by their SMILES.

One may read the CC50 as the concentration that lowers cell viability or growth by half. `CC(C)OC(=O)CC1COP(=O)(CO[C@H](C)Cn2cnc3c(N)ncnc32)OC1` (stereo partly drawn) [Example 3, (R)-isopropyl 2-(2-(((1-(6-amino-9H-purin-9-yl)propan-2-yl)oxy)methyl)-2-oxo-1,3,2-dioxaphosphinan-5-yl)acetate]: the activity at 1 µM in data set [1] and in data set [3] was no more than 30% throughout. The 50% cytotoxic concentration (CC50) in data set [2] is greater than 50 µM.
For `CC(C)OC(=O)CC1COP(=O)(CO[C@H](C)Cn2cnc3c(N(C(=O)c4ccccc4)C(=O)c4ccccc4)ncnc32)OC1` (stereo partly drawn) [Example 20, (R)-isopropyl 2-(2-(((1-(6-(N-benzoylbenzamido)-9H-purin-9-yl)propan-2-yl)oxy)methyl)-2-oxido-1,3,2-dioxaphosphinan-5-yl)acetate], the activity at 1 µM in data set [1] and in data set [3] was no more than 30% each time. Moreover, the CC50 in data set [2] is greater than 50 µM.
Turning to `CC(C)OC(=O)CC1COP(=O)(CO[C@H](C)Cn2cnc3c(NC(=O)c4ccccc4)ncnc32)OC1` (stereo partly drawn) [Example 21, (R)-isopropyl 2-(2-(((1-(6-benzamido-9H-purin-9-yl)propan-2-yl)oxy)methyl)-2-oxo-1,3,2-dioxaphosphinan-5-yl)acetate], the activity at 1 µM in data set [1] and in data set [3] was no more than 30% each time. Besides, in data set [2], the CC50 was greater than 50 µM.
`CC(C)OC(=O)[C@H](C)N[P@](=O)(CO[C@H](C)Cn1cnc2c(N)ncnc21)Oc1ccccc1` [TAF]: the “PHH HBV % of replication at 1 μM compared to DMSO” value in data set [1] is recorded as “++++ (++++ ≤ 30%)”. Moreover, the half-maximal cytotoxic concentration (CC50) in data set [4] is less than 10 µM. Further, the “dHepaRG HBV % of replication at 1 μM compared to DMSO” value in data set [3] is on record as “++++ (++++ ≤ 30%)”.
As to `C[C@H](Cn1cnc2c(N)ncnc21)OCP(=O)(O)O` [TFV], the “PHH HBV % of replication at 1 μM compared to DMSO” value in data set [1] is recorded as “++++ (++++ ≤ 30%)”. In addition, in data set [4], the CC50 was greater than 50 µM. Besides, the “dHepaRG HBV % of replication at 1 μM compared to DMSO” value in data set [3] was “++++ (++++ ≤ 30%)”.

Values taken from patent US20260144879A1, “ANTI-VIRAL AND HEPATIC-TARGETED DRUGS” (AI-BIOPHARMA, priority 2019, published 2026).
